Laboratory results taken from publication PMC7226045, “Ensartinib (X-396) Effectively Modulates Pharmacokinetic Resistance Mediated by ABCB1 and ABCG2 Drug Efflux Transporters and CYP3A4 Biotransformation Enzyme” (Cancers, 2020).

What was measured:
[1] = test system: MDCKII-par cells; test: substrate accumulation in control MDCKII-par cells; assay type: cell-based, canine; settings: hoechst 33342, calcein AM, daunorubicin, mitoxantrone
Protocol: Cellular accumulation assay with hoechst 33342 and calcein AM was performed as described previously. Briefly, MDCKII-par, MDCKII-ABCB1, MDCKII-ABCG2, and MDCKII-ABCC1 cells were seeded at densities of 5.0 × 10^4, 5.0 × 10^4, 5.5 × 10^4, and 6.0 × 10^4 cells/well, respectively, on a transparent 96-well plate and grown to full confluence for 24 h under standard conditions. The cells were then washed twice with 1 × PBS, after which was added either a dilution of ensartinib in Opti-MEM (1, 5, 10, 25, or 50 µM) or a specific inhibitor to act as a positive control (1 µM LY335979, 1 µM Ko143, or 25 µM MK-571 for ABCB1, ABCG2, or ABCC1, respectively). […] The intracellular levels of the substrates were then determined at 1 min intervals for 30 min using a microplate reader (Infinite M200 Pro, Tecan, Männedorf, Switzerland). Fluorescence was monitored in bottom mode using excitation/emission wavelengths of 350/465 and 485/535 nm for hoechst 33342 and calcein AM, respectively.
The flow-cytometric inhibitory assay with daunorubicin and mitoxantrone was performed with minor modifications as described previously. […] Samples were then transferred into test-tubes and kept on ice until their fluorescence could be measured using a flow cytometer (BD FACSCanto II, Allschwil, Switzerland). […]

[2] = MDCKII monolayer transport assay, MDCKII-par; assay type: in vitro ADME, canine; settings: dog, MDCK, 1 µM ensartinib, read-out: transport ratio (r), BA/AB
Protocol: Transport assays were performed on microporous polycarbonate membrane filters (3 µm pore size, 24 mm diameter, Transwell 3414; Costar, Corning, NY, USA) using MDCKII parental as well as ABCB1-, ABCG2-, and ABCC1-overexpressing MDCKII cells. The cells were seeded at a density of 1.5 × 10^6 cells per insert and cultured to full confluence for 7 days with media exchanges on the second and fourth days. Before the start of the transport experiments, inserts were washed with 1 × PBS on both the apical and basal sides. The cells were then preincubated in Opti-MEM with or without model inhibitors (1 µM LY335979, 1 µM Ko143, or 25 µM MK-571). […] Ensartinib levels in samples were measured by UHPLC-MS/MS (see below). […]
Samples from the monolayer transport assays (10 µL) were mixed with 100 µL of acetonitrile and 100 µL of methanol, vortexed for 15 min, and centrifuged at 14,500 rpm for 3 min. […] The MS source parameters were set to the following: drying gas, 320 °C, flow rate 10 l/min; sheath gas, 400 °C at 12 l/min; nebulizer pressure 25 psi; capillary voltage 4000 V; nozzle voltage 0 V. Transitions of [M+H]^+ ions were detected using a dwell time of 150 ms, a cell acceleration of 4 V, and fragmentor voltages of 137 V for 547→357, 257 and 120 transitions (corresponding to collision energies of 16, 32, and 56 V).

[3] = molecular target: T1, CYP1A2 (Homo sapiens, UniProt P05177); test: Vivid CYP screening kit, recombinant CYP1A2; assay type: biochemical; settings: recombinant enzyme
T1 construct: purchased Thermo Fisher Scientific; host or cells: insect microsomal fractions
Protocol: CYP inhibitory assay was performed as described previously. Experiments were performed with commercial Vivid CYP screening kits containing insect microsomal fractions enriched with a specific human CYP isoform, human CYP reductase, and in some cases, human cytochrome b5. The potential inhibitory activity of ensartinib toward CYP1A2, CYP2B6, CYP2C8, CYP2C9, CYP2C19, CYP2D6, CYP3A4, and CYP3A5 (i.e., all CYP isoforms that drug regulatory authorities recommend for testing of inhibition by new molecular entities) was then examined. Experiments were performed using a kinetic mode in black 96-well plates according to the manufacturer´s instructions. Briefly, 5-point serial dilutions of ensartinib or the model inhibitor recommended by the manufacturer in buffer were transferred into the wells, then a master mix consisting of a CYP isoenzyme with an NADPH regeneration system in buffer was added. After a 10 min pre-incubation, the reaction was initiated by adding a mixture of NADP^+ and the appropriate Vivid substrate, after which fluorescence was measured at 1 min intervals for 60 min using an Infinite M200 Pro microplate reader (Tecan, Männedorf, Switzerland). The enzyme concentration and incubation interval used for data evaluation (15 min) placed the systems within the linear regions of the appropriate reaction velocity curves. […]

T1 sequence (P05177 2-516 limits assumed): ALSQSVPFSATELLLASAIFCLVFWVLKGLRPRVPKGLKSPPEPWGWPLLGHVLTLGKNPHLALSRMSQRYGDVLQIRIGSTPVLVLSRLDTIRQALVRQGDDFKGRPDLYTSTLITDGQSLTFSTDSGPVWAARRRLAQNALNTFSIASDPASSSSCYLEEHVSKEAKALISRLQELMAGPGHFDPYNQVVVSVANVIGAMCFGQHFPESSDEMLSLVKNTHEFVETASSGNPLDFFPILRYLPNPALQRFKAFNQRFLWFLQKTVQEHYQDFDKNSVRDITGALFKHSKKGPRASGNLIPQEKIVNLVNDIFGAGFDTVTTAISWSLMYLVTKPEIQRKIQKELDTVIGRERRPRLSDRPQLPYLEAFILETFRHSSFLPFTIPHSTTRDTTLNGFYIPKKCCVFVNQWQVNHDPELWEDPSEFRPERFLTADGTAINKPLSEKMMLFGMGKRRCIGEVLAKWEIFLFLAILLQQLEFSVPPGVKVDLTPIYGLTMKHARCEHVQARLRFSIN

## C[C@@H]1CN(C(=O)c2ccc(NC(=O)c3cc(O[C@H](C)c4c(Cl)ccc(F)c4Cl)c(N)nn3)cc2)C[C@H](C)N1 [ensartinib, Ensartinib]
[1]
  effect on the accumulation of any substrate in control cells: no significant effect
[2]
  efflux ratio at 4 h, 1 µM: 1.01
[3]
  inhibitory effect on CYP1A2 (in words): no appreciable inhibitory effect
[3]; 15 min incubation, absolute IC50, read-out: CYP1A2 inhibition IC50
  IC50: > 50 µM
